The test system of one data set is C. albicans null mutants. Put plainly: Sensitivities to calcofluor white, SDS or NaCl (spotting cells on YPD plates). The format is cell-based, Candida albicans. The settings on record: for Calcofluor white (CW) sensitivity: 3-25 μg/ml CW; for Calcofluor white (CW) sensitivity / NaCl sensitivity: YPD plates, 37° C.; for NaCl sensitivity: 1-3 M NaCl. How it is done:
To investigate the effect of gene disruption on cell wall integrity and remodeling, we tested the sensitivity of all csf null mutants to calcofluor white (CW; Fluorescent Brightener 28-Sigma), SDS or NaCl by spotting cells on plates. Exponential cultures were harvested and adjusted to an OD600 of 0.24. 2.5 μl of samples plus three to four tenfold serial dilutions were deposited on the surface of YPD plates containing increasing concentrations of the compound: 3-25 μg/ml CW, 1-3 M NaCl, 0.01-0.5% SDS. […]
We further characterized the mutants by determining their susceptibility to calcofluor white, SDS and NaCl. The first column contains the name of the strains.
To go further in the analysis, we decided to test cells for their ability to respond to hyperosmotic stresses that require cell wall remodeling and integrity.

Data set [1] concerns C. albicans csf null mutants, clinical isolate and parental strain. Put plainly: Antifungal susceptibility assay (MIC, NCCLS M27A). The format is cell-based, Candida albicans. To be noted: all isolates, RPMI 1640, 35° C., 48 hours. How it is done: Assays were performed at the Center for Medical Mycology, University Hospitals of Cleveland to investigate whether the csf null mutants show a higher susceptibility to antifungals when compared to wild-type. The minimum inhibitory concentrations (MIC) of three antifungal agents, amphotericin B, fluconazole and micafungin, against each fungal isolate were determined according to the NCCLS M27A standard for susceptibility testing of yeasts. […] The MIC endpoint was defined as the lowest concentration that inhibits 80% of fungal growth as compared to the growth control, for fluconazole and micafungin, and 100% inhibition for amphotericin B.
In order to investigate more extensively the effects induced by the loss of the targeted genes on the cell wall (e.g. cell wall permeability), we tested whether the mutant strains were more susceptible to antifungal drugs. Three different antifungal agents were tested at Cleaveland: one polyene (Amphotericin B; a compound that binds to ergosterols and increases membrane permeability), one azole (Fluconazole; a compound that interferes with the ergosterol biosynthesis pathway) and one echinochandin (Micafungin; a compound that inhibits the β-glucan synthetase). No differences in MIC were detected. The MIC of amphotericin B against all isolates, including the clinical isolate and parental strain, was 0.5-1 μg/ml.

In data set [2] the test system is Sap2p, Sap1p, Sap1p and Sap1p. The settings on record: in micromolar concentrations; cited from earlier work.
The target in another data set is hsp90 (Candida albicans, UniProt P46598). To be noted: first stage of double-blind Phase II trial, systemic candidiasis; cited from earlier work.
[3] abbreviates: 6.1231 null mutant vs wild type.
Setting [4] is: 6.1639 null mutant vs wild type.
Setting [5] is: 6.3873 null mutant vs wild type.
Setting [6] is: Candida albicans, endpoint 80% inhibition of fungal growth, read-out: MIC.

The values that follow come from patent US7241613B1, “Identification of Candida cell surface proteins and their uses” (priority 2002, dated 2007).

By MIC is commonly meant the lowest concentration that inhibits growth of the organism.

≈ marks a conversion by molar mass, not a printed value. Where two headings read alike, the source gives them in different places. Starred links: 1 amine or outer side, 2 acyl side, 3 side chain; linkers in the order of their positions; H or OH if unused. Positions of bridges follow the written chain, without caps; N, C: chain ends. Non-standard residues stand in square brackets, D forms with d. Residues, ends and D or L forms follow the SMILES beside them. *: point of attachment. hTyr(3S-OH,4S-OH,3'-OSO3H) = N[C@H](C(=O)O)[C@H](O)[C@@H](O)c1ccc(O)c(OS(=O)(=O)O)c1; Orn(4R-OH,5R-OH) = O=C([C@H](C[C@@H](O)[C@@H](O)N[*:3])N[*:1])[*:2]; Pro(3S-OH,4S-Me) = C[C@H]1CN[C@H](C(=O)O)[C@H]1O; X1 = CCCCCOc1ccc(-c2cc(-c3ccc(C(=O)*)cc3)no2)cc1; Gln(3R-OH) = NC(=O)C[C@@H](O)[C@H](N)C(=O)O; Hyp = O=C(O)[C@@H]1C[C@@H](O)CN1

Chain of hsp90 (P46598 whole entry): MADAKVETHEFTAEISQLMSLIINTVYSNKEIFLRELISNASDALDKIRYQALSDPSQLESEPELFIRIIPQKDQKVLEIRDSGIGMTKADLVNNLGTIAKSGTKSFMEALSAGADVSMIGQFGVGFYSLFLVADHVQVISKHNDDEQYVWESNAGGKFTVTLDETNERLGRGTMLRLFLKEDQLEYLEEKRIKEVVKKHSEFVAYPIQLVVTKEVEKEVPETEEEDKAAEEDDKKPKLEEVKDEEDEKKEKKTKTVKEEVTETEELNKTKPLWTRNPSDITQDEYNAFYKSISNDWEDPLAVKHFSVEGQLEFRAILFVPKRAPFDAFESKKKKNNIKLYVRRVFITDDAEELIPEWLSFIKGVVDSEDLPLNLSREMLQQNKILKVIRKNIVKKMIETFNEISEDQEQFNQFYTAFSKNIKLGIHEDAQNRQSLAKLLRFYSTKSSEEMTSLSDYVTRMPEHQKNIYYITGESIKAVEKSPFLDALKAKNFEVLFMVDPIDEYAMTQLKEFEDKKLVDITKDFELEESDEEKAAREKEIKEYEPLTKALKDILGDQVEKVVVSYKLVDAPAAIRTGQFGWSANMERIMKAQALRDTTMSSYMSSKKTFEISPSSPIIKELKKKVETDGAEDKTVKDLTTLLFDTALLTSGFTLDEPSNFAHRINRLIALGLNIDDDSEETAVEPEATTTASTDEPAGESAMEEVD

Turning to `O=S(=O)(O)c1cc(Nc2nc(Nc3ccccc3)nc(N(CCO)CCO)n2)ccc1/C=C/c1ccc(Nc2nc(Nc3ccccc3)nc(N(CCO)CCO)n2)cc1S(=O)(=O)O` [Calcofluor white, calcofluor white], the “Calcofluor white (CW) sensitivity” value in the data set on C. albicans null mutants (setting [3]) is on record as “+++”; with C. albicans null mutants (setting [4]), “+”; in the data set with C. albicans null mutants (setting [5]), “++”; in the data set with C. albicans null mutants (als1 null mutant vs wild type), “+”; with C. albicans null mutants (hwp1 null mutant vs wild type), “+”; in the data set on C. albicans null mutants (mp65 null mutant vs wild type) it was “+++”. The “Calcofluor white (CW) sensitivity” value in the data set on C. albicans null mutants (pra1 null mutant vs wild type) is recorded as “++”; with C. albicans null mutants (sap9 null mutant vs wild type), “+”. In the data set with C. albicans null mutants (6.1231Δ, 25 μg/ml calcofluor), the “growth in the presence of calcofluor” value is “no more cells were growing”. In addition, the “sensitivity to calcofluor white” value in the data set with C. albicans null mutants (mp65Δ) is recorded as “highly sensitive”.

As to `[Cl-].[Na+]` [NaCl], the NaCl sensitivity entry in the data set on C. albicans null mutants (setting [3]), with C. albicans null mutants (setting [4]), in the data set with C. albicans null mutants (setting [5]), in the data set on C. albicans null mutants (als1 null mutant vs wild type), in the data set with C. albicans null mutants (hwp1 null mutant vs wild type) and in the data set on C. albicans null mutants (mp65 null mutant vs wild type) was “+” in each case. The NaCl sensitivity entry in the data set on C. albicans null mutants (pra1 null mutant vs wild type) and in the data set on C. albicans null mutants (sap9 null mutant vs wild type) was “+” throughout. Moreover, the “sensitivity to NaCl (hyperosmotic stress)” value in the data set on C. albicans null mutants (all six csf mutants, increasing NaCl concentration (0-3M), 24 h at 37° C.) was “as sensitive as the parental strain”.

For the molecule `CCCCCCCCCCCCOS(=O)(=O)[O-].[Na+]` [SDS, sodium dodecyl sulfate], the “sensitivity to SDS” value in the data set on C. albicans null mutants (mp65Δ, 6.1639Δ and sap9Δ, increasing concentrations of SDS (0-0.5%), 24 h at 37° C.) is “hypersensitive”.

Take `C[C@@H]1[C@H](O)[C@@H](C)/C=C/C=C/C=C/C=C/C=C/C=C/C=C/[C@H](O[C@@H]2O[C@H](C)[C@@H](O)[C@H](N)[C@@H]2O)C[C@@H]2O[C@](O)(C[C@@H](O)C[C@@H](O)[C@H](O)CC[C@@H](O)C[C@@H](O)CC(=O)O[C@H]1C)C[C@H](O)[C@H]2C(=O)O` [amphotericin B]: the minimum inhibitory concentration (MIC) in data set [1] (including the clinical isolate and parental strain, endpoint 100% inhibition) was in the range of 0.5 to 1 µg/mL.

On to `OC(Cn1cncn1)(Cn1cncn1)c1ccc(F)cc1F` [fluconazole], for which, in data set [1] (setting [6]), the MIC was 0.25 µg/mL (≈ 0.816 µM).

For `CCCCCOc1ccc(-c2cc(-c3ccc(C(=O)N[C@H]4C[C@@H](O)[C@@H](O)NC(=O)[C@@H]5[C@@H](O)[C@@H](C)CN5C(=O)[C@H]([C@H](O)CC(N)=O)NC(=O)[C@H]([C@H](O)[C@@H](O)c5ccc(O)c(OS(=O)(=O)O)c5)NC(=O)[C@@H]5C[C@@H](O)CN5C(=O)[C@H]([C@@H](C)O)NC4=O)cc3)no2)cc1` [micafungin] (X1-[Orn(4R-OH,5R-OH)]T[Hyp][hTyr(3S-OH,4S-OH,3'-OSO3H)][Gln(3R-OH)][Pro(3S-OH,4S-Me)]; lactam 1-C), the MIC in data set [1] (setting [6]) was determined as 0.008 µg/mL (≈ 0.0063 µM).

With `CC(C)c1nc(CN(C)C(=O)N[C@H](C(=O)N[C@@H](Cc2ccccc2)C[C@H](O)[C@H](Cc2ccccc2)NC(=O)OCc2cncs2)C(C)C)cs1` [ritonavir], the “inhibition of the activity of Sap2p, Sap1p, Sap1p and Sap1p” value in data set [2] is reported as “inhibit the activity”.

Turning to `CC(C)(C)NC(=O)[C@@H]1C[C@@H]2CCCC[C@@H]2CN1C[C@@H](O)[C@H](Cc1ccccc1)NC(=O)[C@H](CC(N)=O)NC(=O)c1ccc2ccccc2n1` [saquinavir], in data set [2], the “inhibition of the activity of Sap2p, Sap1p, Sap1p and Sap1p” value is “inhibit the activity”.

B1: Mycograb: monoclonal antibodies directed against hsp90 in clinical trials for systemic candidiasis (antibody, chains of the INN, looked up, V domains shown)
VH: EVQLVESGAEVKKPGESLRISCKGSGCIISSYWISWVRQMPGKGLEWMGKIDPGDSYINYSPSFQGHVTISADKSINTAYLQWNSLKASDTAMYYCARGGRDFGDSFDYWGQGTLVTVSS
VL: DVVMTQSPSFLSAFVGDRITITCRASSGISRYLAWYQQAPGKAPKLLIYAASTLQTGVPSRFSGSGSGTEFTLTINSLQPEDFATYYCQHLNSYPLTFGGGTKVDIK
modifications: scFv
notes: monoclonal antibodies directed against hsp90 in clinical trials for systemic candidiasis
Regarding B1, in the data set with hsp90, the serious adverse events result is given as “No serious adverse events”.
